{"source": "paper PMC9814781", "about": "“Structure-based design of a dual-warhead covalent inhibitor of FGFR4” (Communications Chemistry, 2022)", "key": {"CDK7/CycH/MAT1": {"biological_target": "CDK7/CycH/MAT1 (Homo sapiens, UniProt P50613)", "assay": "Kinase selectivity profiling"}, "TRKA": {"biological_target": "TRKA (Homo sapiens, UniProt P04629)", "assay": "Kinase selectivity profiling"}, "LYNb": {"biological_target": "LYNb (Homo sapiens, UniProt P07948)", "assay": "Kinase selectivity profiling"}, "GSK3α": {"biological_target": "GSK3α (Homo sapiens, UniProt P49840)", "assay": "Kinase selectivity profiling"}, "FGR": {"biological_target": "FGR (Homo sapiens, UniProt P09769)", "assay": "Kinase selectivity profiling"}, "GLK": {"biological_target": "GLK (Homo sapiens, UniProt Q8IVH8)", "assay": "Kinase selectivity profiling"}, "PDGFRβ": {"biological_target": "PDGFRβ (Homo sapiens, UniProt P09619)", "assay": "Kinase selectivity profiling"}, "TGFbR1": {"biological_target": "TGFbR1 (Homo sapiens, UniProt P36897)", "assay": "Kinase selectivity profiling"}, "AurB": {"biological_target": "AurB (Homo sapiens, UniProt Q96GD4)", "assay": "Kinase selectivity profiling"}, "JAK3": {"biological_target": "JAK3 (Homo sapiens, UniProt P52333)", "assay": "Kinase selectivity profiling"}, "CDK3/CycE1": {"biological_target": "CDK3/CycE1 (Homo sapiens, UniProt Q00526)", "assay": "Kinase selectivity profiling"}, "PIM2": {"biological_target": "PIM2 (Homo sapiens, UniProt Q9P1W9)", "assay": "Kinase selectivity profiling"}, "KHS": {"biological_target": "KHS (Homo sapiens, UniProt Q9Y4K4)", "assay": "Kinase selectivity profiling"}, "JAK1": {"biological_target": "JAK1 (Homo sapiens, UniProt P23458)", "sequence (P23458 whole entry)": "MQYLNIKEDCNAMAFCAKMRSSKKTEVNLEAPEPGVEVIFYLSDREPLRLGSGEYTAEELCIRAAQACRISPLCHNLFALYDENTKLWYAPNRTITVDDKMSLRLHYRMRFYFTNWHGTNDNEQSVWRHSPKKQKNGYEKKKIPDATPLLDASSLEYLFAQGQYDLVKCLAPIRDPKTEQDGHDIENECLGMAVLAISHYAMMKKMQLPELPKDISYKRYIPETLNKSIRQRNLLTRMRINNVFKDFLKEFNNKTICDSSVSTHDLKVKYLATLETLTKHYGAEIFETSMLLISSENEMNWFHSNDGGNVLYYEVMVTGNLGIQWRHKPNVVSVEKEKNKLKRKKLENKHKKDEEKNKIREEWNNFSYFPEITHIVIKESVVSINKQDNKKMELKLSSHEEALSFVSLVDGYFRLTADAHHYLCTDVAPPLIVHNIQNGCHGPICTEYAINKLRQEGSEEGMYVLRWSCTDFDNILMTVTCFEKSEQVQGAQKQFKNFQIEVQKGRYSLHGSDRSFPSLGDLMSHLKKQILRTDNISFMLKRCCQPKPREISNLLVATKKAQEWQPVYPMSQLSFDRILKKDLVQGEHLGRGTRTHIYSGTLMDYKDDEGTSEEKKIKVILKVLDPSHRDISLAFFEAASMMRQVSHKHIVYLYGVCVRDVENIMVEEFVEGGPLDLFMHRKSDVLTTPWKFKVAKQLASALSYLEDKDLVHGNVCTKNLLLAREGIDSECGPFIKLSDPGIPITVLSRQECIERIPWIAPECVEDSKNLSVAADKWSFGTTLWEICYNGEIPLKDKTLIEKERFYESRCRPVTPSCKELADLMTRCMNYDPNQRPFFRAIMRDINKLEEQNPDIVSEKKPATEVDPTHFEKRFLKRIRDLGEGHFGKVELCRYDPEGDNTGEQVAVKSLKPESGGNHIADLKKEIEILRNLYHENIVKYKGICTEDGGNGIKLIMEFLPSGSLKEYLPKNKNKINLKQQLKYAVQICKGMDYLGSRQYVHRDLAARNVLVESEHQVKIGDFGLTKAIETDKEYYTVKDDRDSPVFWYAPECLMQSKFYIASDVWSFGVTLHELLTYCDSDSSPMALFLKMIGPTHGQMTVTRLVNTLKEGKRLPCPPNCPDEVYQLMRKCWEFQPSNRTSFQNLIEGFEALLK", "assay": "Kinase selectivity profiling"}, "EPHA4": {"biological_target": "EPHA4 (Homo sapiens, UniProt P54764)", "sequence (P54764 20-986)": "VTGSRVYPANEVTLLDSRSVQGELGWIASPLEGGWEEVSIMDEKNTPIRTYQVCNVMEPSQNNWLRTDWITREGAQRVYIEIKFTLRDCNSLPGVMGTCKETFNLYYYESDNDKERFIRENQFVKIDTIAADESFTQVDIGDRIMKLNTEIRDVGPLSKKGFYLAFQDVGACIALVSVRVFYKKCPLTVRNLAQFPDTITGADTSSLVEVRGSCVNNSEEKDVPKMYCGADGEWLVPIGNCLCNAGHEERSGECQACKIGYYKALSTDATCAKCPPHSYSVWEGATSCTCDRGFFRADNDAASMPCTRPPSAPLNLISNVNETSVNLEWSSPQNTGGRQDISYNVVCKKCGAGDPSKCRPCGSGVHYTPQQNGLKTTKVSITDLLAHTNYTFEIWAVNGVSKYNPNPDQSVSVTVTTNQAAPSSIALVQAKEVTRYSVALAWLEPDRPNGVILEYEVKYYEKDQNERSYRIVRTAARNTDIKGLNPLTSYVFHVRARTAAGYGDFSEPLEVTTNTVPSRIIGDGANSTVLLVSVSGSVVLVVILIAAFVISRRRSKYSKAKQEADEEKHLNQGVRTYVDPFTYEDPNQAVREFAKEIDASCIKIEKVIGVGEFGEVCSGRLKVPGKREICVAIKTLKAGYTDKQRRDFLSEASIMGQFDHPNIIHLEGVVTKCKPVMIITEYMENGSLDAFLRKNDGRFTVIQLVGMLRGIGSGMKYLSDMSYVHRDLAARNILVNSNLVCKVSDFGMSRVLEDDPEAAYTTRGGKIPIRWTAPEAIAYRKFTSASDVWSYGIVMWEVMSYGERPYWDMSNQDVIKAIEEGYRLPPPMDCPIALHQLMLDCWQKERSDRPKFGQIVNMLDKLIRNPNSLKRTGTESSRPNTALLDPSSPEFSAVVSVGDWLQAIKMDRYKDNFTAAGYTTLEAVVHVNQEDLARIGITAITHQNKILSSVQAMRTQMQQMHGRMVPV", "assay": "Kinase selectivity profiling"}, "CLK1": {"biological_target": "CLK1 (Homo sapiens, UniProt P49759)", "assay": "Kinase selectivity profiling"}, "DYRK4": {"biological_target": "T1, DYRK4 (Homo sapiens, UniProt Q9NR20)", "T1 construct": "purchased ICE Bioscience", "assay": "Kinase selectivity profiling", "format": "biochemical", "settings": "DYRK4, 1000 nM"}, "TGFβR2": {"biological_target": "TGFβR2 (Homo sapiens, UniProt P37173)", "assay": "Kinase selectivity profiling"}, "MINK": {"biological_target": "MINK (Homo sapiens, UniProt Q8N4C8)", "assay": "Kinase selectivity profiling"}, "DYRK3": {"biological_target": "DYRK3 (Homo sapiens, UniProt O43781)", "assay": "Kinase selectivity profiling"}, "PYK2": {"biological_target": "PYK2 (Homo sapiens, UniProt Q14289)", "assay": "Kinase selectivity profiling"}, "FER": {"biological_target": "FER (Homo sapiens, UniProt P16591)", "assay": "Kinase selectivity profiling"}, "PI3K(p120gamma)": {"biological_target": "PI3K(p120gamma) (Homo sapiens, UniProt P48736)", "assay": "Kinase selectivity profiling"}, "JAK2": {"biological_target": "JAK2 (Homo sapiens, UniProt O60674)", "assay": "Kinase selectivity profiling"}, "BTK": {"biological_target": "BTK (Homo sapiens, UniProt Q06187)", "assay": "Kinase selectivity profiling"}, "HIPK1": {"biological_target": "HIPK1 (Homo sapiens, UniProt Q86Z02)", "sequence (Q86Z02 whole entry)": "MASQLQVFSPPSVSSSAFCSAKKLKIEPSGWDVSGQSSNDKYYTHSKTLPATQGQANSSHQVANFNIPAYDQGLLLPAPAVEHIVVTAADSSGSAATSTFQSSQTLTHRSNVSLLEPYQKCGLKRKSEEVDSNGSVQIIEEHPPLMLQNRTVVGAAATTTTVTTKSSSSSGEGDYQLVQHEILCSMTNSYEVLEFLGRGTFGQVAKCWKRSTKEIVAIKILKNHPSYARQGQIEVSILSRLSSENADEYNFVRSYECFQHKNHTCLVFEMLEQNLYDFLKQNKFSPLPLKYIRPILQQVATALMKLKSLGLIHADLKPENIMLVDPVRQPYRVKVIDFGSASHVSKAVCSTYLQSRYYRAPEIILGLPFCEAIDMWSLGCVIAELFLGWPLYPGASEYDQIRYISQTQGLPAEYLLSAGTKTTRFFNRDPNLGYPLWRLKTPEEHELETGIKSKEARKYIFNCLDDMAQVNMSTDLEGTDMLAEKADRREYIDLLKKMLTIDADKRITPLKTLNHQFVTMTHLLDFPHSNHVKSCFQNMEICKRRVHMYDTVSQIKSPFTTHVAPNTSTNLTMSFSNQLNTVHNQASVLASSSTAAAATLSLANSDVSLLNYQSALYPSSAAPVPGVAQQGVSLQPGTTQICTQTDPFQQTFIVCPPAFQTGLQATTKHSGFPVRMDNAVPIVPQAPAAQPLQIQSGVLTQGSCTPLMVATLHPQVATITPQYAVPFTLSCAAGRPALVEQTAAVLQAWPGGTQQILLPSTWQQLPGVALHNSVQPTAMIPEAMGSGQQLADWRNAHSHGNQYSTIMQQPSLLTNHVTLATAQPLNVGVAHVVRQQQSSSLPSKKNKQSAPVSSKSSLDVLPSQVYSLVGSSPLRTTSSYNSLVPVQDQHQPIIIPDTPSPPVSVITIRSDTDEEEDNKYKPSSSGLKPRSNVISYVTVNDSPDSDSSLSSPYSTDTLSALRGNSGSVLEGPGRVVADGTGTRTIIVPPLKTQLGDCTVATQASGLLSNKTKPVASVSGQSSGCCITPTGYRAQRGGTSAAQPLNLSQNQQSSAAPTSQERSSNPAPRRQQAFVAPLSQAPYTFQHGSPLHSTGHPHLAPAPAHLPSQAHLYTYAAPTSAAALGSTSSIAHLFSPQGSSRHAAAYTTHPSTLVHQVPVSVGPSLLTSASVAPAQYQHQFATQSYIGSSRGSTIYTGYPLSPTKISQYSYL", "assay": "Kinase selectivity profiling"}, "PLK3": {"biological_target": "PLK3 (Homo sapiens, UniProt Q9H4B4)", "assay": "Kinase selectivity profiling"}, "FGFR1": {"biological_target": "FGFR1 (Homo sapiens, UniProt P11362)", "assay": "Kinase selectivity profiling"}, "SGK3": {"biological_target": "SGK3 (Homo sapiens, UniProt Q96BR1)", "sequence (Q96BR1 whole entry)": "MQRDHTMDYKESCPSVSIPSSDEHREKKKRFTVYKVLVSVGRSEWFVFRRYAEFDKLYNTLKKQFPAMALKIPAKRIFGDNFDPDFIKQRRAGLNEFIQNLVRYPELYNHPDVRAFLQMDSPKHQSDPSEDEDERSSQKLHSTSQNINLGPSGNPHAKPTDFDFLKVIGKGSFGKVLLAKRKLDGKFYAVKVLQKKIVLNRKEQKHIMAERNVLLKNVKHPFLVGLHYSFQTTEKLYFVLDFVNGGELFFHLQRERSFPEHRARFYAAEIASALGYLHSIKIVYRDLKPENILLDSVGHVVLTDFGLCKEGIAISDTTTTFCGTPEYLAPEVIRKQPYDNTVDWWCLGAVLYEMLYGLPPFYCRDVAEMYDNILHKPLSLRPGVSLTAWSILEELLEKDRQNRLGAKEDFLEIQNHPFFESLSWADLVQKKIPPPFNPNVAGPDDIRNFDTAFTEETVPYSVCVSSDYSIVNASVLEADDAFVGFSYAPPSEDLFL", "assay": "Kinase selectivity profiling"}, "Hep3B": {"tested_on": "Hep3B", "assay": "Hep3B viability assay", "format": "cell-based", "settings": "Homo sapiens, FGF19-overexpressing HCC cell line, 72 h, CCK-8", "protocol": "Hep3B (ThermoFisher Scientific, 11965, America) and Huh7 (ThermoFisher Scientific, 11095, America) cells were seeded into 96-well plates at 4000 cells/well and 2000 cells/well, respectively. […] Cell viabilities were measured by a CCK-8 kit (Vazyme, China). The IC50 values were calculated using GraphPad Prism software."}, "NEK1": {"biological_target": "NEK1 (Homo sapiens, UniProt Q96PY6)", "assay": "Kinase selectivity profiling"}, "MAP2K1": {"biological_target": "MAP2K1 (Homo sapiens, UniProt Q02750)", "assay": "Kinase selectivity profiling"}, "Erk5": {"biological_target": "Erk5 (Homo sapiens, UniProt Q13164)", "assay": "Kinase selectivity profiling"}, "FGFR3": {"biological_target": "FGFR3 (Homo sapiens, UniProt P22607)", "assay": "Kinase selectivity profiling"}, "FRK": {"biological_target": "FRK (Homo sapiens, UniProt P42685)", "assay": "Kinase selectivity profiling"}, "HIPK2": {"biological_target": "HIPK2 (Homo sapiens, UniProt Q9H2X6)", "sequence (Q9H2X6 whole entry)": "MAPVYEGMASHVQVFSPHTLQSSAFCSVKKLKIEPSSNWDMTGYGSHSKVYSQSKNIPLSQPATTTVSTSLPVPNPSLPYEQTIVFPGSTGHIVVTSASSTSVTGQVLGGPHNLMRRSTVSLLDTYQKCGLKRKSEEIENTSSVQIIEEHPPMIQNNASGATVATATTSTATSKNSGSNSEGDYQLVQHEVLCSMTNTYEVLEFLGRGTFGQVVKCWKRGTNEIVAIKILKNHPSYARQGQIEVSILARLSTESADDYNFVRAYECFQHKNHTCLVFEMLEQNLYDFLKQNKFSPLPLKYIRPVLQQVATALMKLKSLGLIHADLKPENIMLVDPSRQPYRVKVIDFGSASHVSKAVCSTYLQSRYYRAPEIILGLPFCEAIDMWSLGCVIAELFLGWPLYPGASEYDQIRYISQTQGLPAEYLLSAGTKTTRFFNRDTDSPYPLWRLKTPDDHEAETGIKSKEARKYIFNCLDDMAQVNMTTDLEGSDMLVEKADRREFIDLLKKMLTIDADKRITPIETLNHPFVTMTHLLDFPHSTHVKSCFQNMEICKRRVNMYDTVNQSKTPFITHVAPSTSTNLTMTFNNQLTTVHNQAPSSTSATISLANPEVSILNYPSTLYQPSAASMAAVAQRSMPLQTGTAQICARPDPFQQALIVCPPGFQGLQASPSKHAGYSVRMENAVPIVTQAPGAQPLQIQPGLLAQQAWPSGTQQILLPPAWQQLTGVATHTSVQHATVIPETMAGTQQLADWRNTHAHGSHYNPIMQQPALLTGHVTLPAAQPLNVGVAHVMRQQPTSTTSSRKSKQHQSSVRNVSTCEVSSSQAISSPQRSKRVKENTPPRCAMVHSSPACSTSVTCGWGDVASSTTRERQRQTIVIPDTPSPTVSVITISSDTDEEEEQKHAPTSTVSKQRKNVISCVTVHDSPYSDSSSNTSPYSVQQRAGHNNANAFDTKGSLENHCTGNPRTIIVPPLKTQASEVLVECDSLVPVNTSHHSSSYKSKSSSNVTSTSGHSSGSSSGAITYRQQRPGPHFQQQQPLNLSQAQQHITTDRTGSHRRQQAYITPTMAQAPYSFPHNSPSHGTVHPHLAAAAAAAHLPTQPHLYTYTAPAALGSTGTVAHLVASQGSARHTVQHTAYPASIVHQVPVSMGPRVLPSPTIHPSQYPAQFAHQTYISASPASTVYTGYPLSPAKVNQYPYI", "assay": "Kinase selectivity profiling"}, "ITK": {"biological_target": "ITK (Homo sapiens, UniProt Q08881)", "assay": "Kinase selectivity profiling"}, "NEK2": {"biological_target": "NEK2 (Homo sapiens, UniProt P51955)", "assay": "Kinase selectivity profiling"}, "NPM1-ALK": {"biological_target": "NPM1-ALK (Homo sapiens, UniProt P06748+Q9UM73)", "assay": "Kinase selectivity profiling"}}}
{"smiles": "C=CC(=O)Nc1ccccc1Nc1ncc2c(n1)N(CCCN1CCN(C(=O)C=C)CC1)C(=O)N(c1cc(OC)cc(OC)c1)C2", "note": "[CXF-009]", "values": [{"measurement": "inhibition at 1 µM", "setting": "CDK7/CycH/MAT1", "value": 1.27, "unit": "%"}, {"measurement": "inhibition at 1 µM", "setting": "TRKA", "value": 26.2, "unit": "%"}, {"measurement": "inhibition at 1 µM", "setting": "LYNb", "value": 7.62, "unit": "%"}, {"measurement": "inhibition at 1 µM", "setting": "GSK3α", "value": 5.79, "unit": "%"}, {"measurement": "inhibition at 1 µM", "setting": "FGR", "value": -1.1, "unit": "%"}, {"measurement": "inhibition at 1 µM", "setting": "GLK", "value": 2.68, "unit": "%"}, {"measurement": "inhibition at 1 µM", "setting": "PDGFRβ", "value": -6.88, "unit": "%"}, {"measurement": "inhibition at 1 µM", "setting": "TGFbR1", "value": 1.08, "unit": "%"}, {"measurement": "inhibition at 1 µM", "setting": "AurB", "value": -2.47, "unit": "%"}, {"measurement": "inhibition at 1 µM", "setting": "JAK3", "value": 1.94, "unit": "%"}, {"measurement": "inhibition at 1 µM", "setting": "CDK3/CycE1", "value": -7.17, "unit": "%"}, {"measurement": "inhibition at 1 µM", "setting": "PIM2", "value": 2.38, "unit": "%"}, {"measurement": "inhibition at 1 µM", "setting": "KHS", "value": 4.11, "unit": "%"}, {"measurement": "inhibition at 1 µM", "setting": "JAK1", "value": -12.3, "unit": "%"}, {"measurement": "inhibition at 1 µM", "setting": "EPHA4", "value": -6.83, "unit": "%"}, {"measurement": "inhibition at 1 µM", "setting": "CLK1", "value": 1.48, "unit": "%"}, {"measurement": "inhibition at 1 µM", "setting": "DYRK4", "value": 1.84, "unit": "%"}, {"measurement": "inhibition at 1 µM", "setting": "TGFβR2", "value": -10.4, "unit": "%"}, {"measurement": "inhibition at 1 µM", "setting": "MINK", "value": 16.6, "unit": "%"}, {"measurement": "inhibition at 1 µM", "setting": "DYRK3", "value": -12, "unit": "%"}, {"measurement": "inhibition at 1 µM", "setting": "PYK2", "value": 2.11, "unit": "%"}, {"measurement": "inhibition at 1 µM", "setting": "FER", "value": 37.1, "unit": "%"}, {"measurement": "inhibition at 1 µM", "setting": "PI3K(p120gamma)", "value": 15, "unit": "%"}, {"measurement": "inhibition at 1 µM", "setting": "JAK2", "value": 0.56, "unit": "%"}, {"measurement": "inhibition at 1 µM", "setting": "BTK", "value": -5.76, "unit": "%"}, {"measurement": "inhibition at 1 µM", "setting": "HIPK1", "value": -5.67, "unit": "%"}, {"measurement": "inhibition at 1 µM", "setting": "PLK3", "value": -1.12, "unit": "%"}, {"measurement": "inhibition at 1 µM", "setting": "FGFR1", "value": 4.98, "unit": "%"}, {"measurement": "inhibition at 1 µM", "setting": "SGK3", "value": 1.58, "unit": "%"}, {"measurement": "IC50", "setting": "Hep3B", "value": 895, "unit": "nM"}, {"measurement": "inhibition at 1 µM", "setting": "NEK1", "value": 1.39, "unit": "%"}, {"measurement": "inhibition at 1 µM", "setting": "MAP2K1", "value": 0.59, "unit": "%"}, {"measurement": "inhibition at 1 µM", "setting": "Erk5", "value": 14, "unit": "%"}, {"measurement": "inhibition at 1 µM", "setting": "FGFR3", "value": 11.1, "unit": "%"}, {"measurement": "inhibition at 1 µM", "setting": "FRK", "value": -0.22, "unit": "%"}, {"measurement": "inhibition at 1 µM", "setting": "HIPK2", "value": -5.04, "unit": "%"}, {"measurement": "inhibition at 1 µM", "setting": "ITK", "value": 4.35, "unit": "%"}, {"measurement": "inhibition at 1 µM", "setting": "NEK2", "value": 17.9, "unit": "%"}, {"measurement": "inhibition at 1 µM", "setting": "NPM1-ALK", "value": 0.37, "unit": "%"}]}
